Like-named read-outs stand apart in the source and are kept apart here.
What was measured:
[1] = biological target: PARP5a (Homo sapiens (Human), UniProt O95271); assay: PARP fluorescence anisotropy binding assay, PARP5a
Method: Recombinant PARP5a binding domain was diluted to 160 nM with 50 mM Tris pH 8, 0.001% Triton X100, 10 mM MgCl2, 150 mM NaCl and incubated for four hours with an equivalent volume of 6 nM fluorescent probe diluted with 50 mM Tris pH 8, 0.001% Triton X100, 10 mM MgCl2, 150 mM NaCl. The final DMSO concentration of the probe was kept below 1% (v/v).

[2] = biological target: PARP6 (Homo sapiens (Human), UniProt Q2NL67); assay: PARP fluorescence anisotropy binding assay, PARP6
Method: (§1) Recombinant full length GST tagged PARP6 protein was diluted to 160 nM with 50 mM Tris pH 8, 0.001% Triton X100, 10 mM MgCl2, 150 mM NaCl and incubated for four hours with an equivalent volume of 6 nM fluorescent probe diluted with 50 mM Tris pH 8, 0.001% Triton X100, 10 mM MgCI2, 150 mM NaCl. The final DMSO concentration of the probe was kept below 1% (v/v).
Fluorescence anisotropy of the probe when bound to the proteins was measured using a BMG Pherastar FSX® in the presence of test compounds or solvent control and the effect on anisotropy determined. % inhibition values for different test compound concentrations were calculated and fitted to a four parameter logistic plot in order to determine the IC50 value. Where necessary, the compound K, can be determined from the IC50 value using a Munson Rodbard equation defined in Anal Biochem. 1980 Sep. 1; 107(1):220-39 and is based on the known KD of the probe binding to the relevant PARP protein

[3] = biological target: PARP1 (Homo sapiens (Human), UniProt P09874); assay: PARP fluorescence anisotropy binding assay, PARP1
Method: Recombinant full length 6HIS tagged PARP1 protein was diluted to 6 nM with 50 mM Tris pH 8, 0.001% Triton X100, 10 mM MgCl2, 150 mM NaCl and incubated for four hours with an equivalent volume of 2 nM fluorescent probe diluted with 50 mM Tris pH 8, 0.001% Triton X100, 10 mM MgCl2, 150 mM NaCl. The final DMSO concentration of the probe was kept below 1% (v/v).

[4] = biological target: PARP2 (Homo sapiens (Human), UniProt Q9UGN5); assay: PARP fluorescence anisotropy binding assay, PARP2
Method: as §1, with “PARP2” for “GST tagged PARP6”, “6” for “160”, “2” for “6”, “MgCl2,” for “MgCI2,”
Fluorescence anisotropy of the probe when bound to the proteins was measured using a BMG Pherastar FSX® in the presence of test compounds or solvent control and the effect on anisotropy determined. % inhibition values for different test compound concentrations were calculated and fitted to a four parameter logistic plot in order to determine the IC50 value.

[5] = biological target: PARP3 (Homo sapiens (Human), UniProt Q9Y6F1); assay: PARP fluorescence anisotropy binding assay, PARP3
Method: Recombinant full length PARP3 protein was diluted to 100 nM with 50 mM Tris pH 8, 0.001% Triton X100, 10 mM MgCl2, 150 mM NaCl and incubated for four hours with an equivalent volume of 6 nM fluorescent probe diluted with 50 mM Tris pH 8, 0.001% Triton X100, 10 mM MgCl2, 150 mM NaCl. The final DMSO concentration of the probe was kept below 1% (v/v).

[6] = Determination of Kpuu in rat; assay type: in vivo, Han Wistar rats; conditions: intravenous infusion; for Kp uu at 4 h: Han Wistar, rat, brain and plasma (unbound brain-to-plasma ratio), 2 µmols/kg/h; for Rat Kpuu: 4 h, brain/plasma unbound
Method: The fraction unbound was determined using the RED Device.
Compounds were prepared as 10 mM solutions in DMSO. […] If less than 9 test compounds were included then the addition volume of blank DMSO was added to make up volume to 40 uL.
Frozen plasma was thawed in a water bath at 37° C. Plasma was then centrifuged for 2 minutes at 4,000 rpm to remove clots and collect supernatant into a fresh tube. The pH of the plasma was checked and only used if within the range of pH 7 to pH 8. 3 μL of the working solution of each cassette was added to 597 μL of blank plasma and vortexed for 5 minutes at 1000 rpm. The final percent volume of organic solvent is 0.5% and the final concentration for test compound was 5 μM. Immediately transfer 50 μL of the spiked plasma suspension to a 96-well plate to act as T=0 control sample. The samples are treated the same as the samples after incubation. The remaining plasma is kept at 37° C. prior to starting the dialysis.
Place inserts open end up into the wells of the base plate. Add 300 μL of spiked plasma sample into the sample chamber, indicated by the red ring. Add 500 μL of phosphate buffer (pH 7.4) to the buffer chamber. Cover the unit with gas permeable lid and incubate for 18 hours at 37° C. at 300 rpm with 5% CO2 on an orbital shaker in the CO2 incubator. At the end of incubation, remove lid and pipette 50 μL of post-dialysis samples from both buffer and plasma chambers into separated 96-well plate for analysis, respectively.
Samples were matrix matched by adding 50 μL of blank rat plasma to the buffer samples and an equal volume of PBS to the collected plasma samples and vortexed to mix. 400 μL of acetonitrile containing an appropriate internal standard (IS) was added to precipitate protein and release compound and mixed by vortexing the plate for 10 minutes followed by centrifugation for 30 minutes at 4,000 rpm. 250 μL of the supernatant was transferred to new 96-well plates and centrifuged again (4,000 rpm, 30 minutes). 100 μL of the supernatant was then transferred to new 96-well plates and mixed with 100 μL of distilled water to each sample by vortex for 5 minutes at 1,000 rpm. Samples were analysed by LC-MS/MS and drug concentrations were determined vs a calibration curve produced from spiked blank plasma with a typical range of 1-7500 nM.
The % unbound was determined as % Unbound=(Conc. buffer chamber/Conc. plasma chamber)×100%. Fraction unbound=% unbound/100.
The principle for the method for the determination of volume unbound in brain slices has previously been published (Development of a High-Throughput Brain Slice Method for Studying Drug Distribution in the Central Nervous System; Fridén et al; Drug Metabolism and Disposition, 2009, 37 (6) 1226-1233). In brief:
Compound stock solutions were prepared in DMSO at the concentration of 10 mM. […] If less than 9 test compounds were included, then blank DMSO was added to make up volume to 40 uL. On the day of the experiment 4 ul was diluted in 40 mL ECF buffer to give a 100 nM solution of each test compounds which was then pre-warmed to 37° C. before the start of the incubation.
To prepare brain slices, rats weighing approximately 300 g were terminally anesthetised with isoflurane by inhalation, the brain carefully removed and immersed in ice-cold oxygenated ECF buffer. The rat brain was transferred to a dish containing ice-cold, 02 supplied ECF buffer and trimmed with razor before gluing to the tray of a microslicer with the brain placed with the back section surface down centrally on the tray. Ice cold ECF buffer was added to harden the glue and wet the brain. The tray was placed in the microslicer and using a suitable cutting speed, 100-400 μm were cut slices until the striatum area appeared. Four to six for each brain, 300 μm thick, coronal slices of striatum areas were cut and placed in ice cold 02 supplied buffer until incubation. Six slices were transferred to the incubation tray containing 40 mL pre warmed (37° C.) cassette mixture. […]

[7] = test system: MDR1 and BCRP; assay: In vitro human transporter efflux (MDCK-MDR1-BCRP); conditions: human, pH 7.4
Method: MDCKII cells expressing MDR1 and BCRP were seeded onto polyethylene membranes in 96-well Transwell insert systems at a density to form a confluent cell monolayer. […] The final percent volume of the organic solvent was less than 1%. Permeation of the test compounds from A to B direction and from B to A direction was determined over a 90-min incubation at 37° C. and 5% CO2 with a relative humidity of 95%. At the end of the incubation, samples from the apical and basolateral side were taken and then precipitated with cold acetonitrile containing internal standard. After centrifugation at 4000 rpm, the supernatant was diluted with 0.1% formic acid aqueous solution and quantified by LC-MS/MS. The integrity of the cell monolayers was confirmed by using the marker Lucifer yellow.
The permeability coefficient (1×10-6 cm/s) was calculated using the following equation
(1) The Efflux Ratio was Calculated Using the Following Equation
Efflux ratio=Papp(B to A)/Papp(A to B)
(2) where dCr/dt is the cumulative concentration of the compound in the receiver chamber as a function of time (in μM/s); Vr is the solution volume in the receiver chamber (0.1 ml on the apical side and 0.3 ml on the basolateral side); A is the surface area for the transport, that is, 0.11 cm2 for the area of the monolayer; and C0 is the initial concentration in the donor chamber (in μM).

[8] = biological target: hERG (Homo sapiens (Human), UniProt Q12809); assay: hERG IC50
[9] = test system: BRCA2 (−/−) DLD1 cells; assay: PARP proliferation assay (7 day compound dosing), BRCA2 (−/−) DLD1; assay type: cell-based; conditions: Homo sapiens, DLD-1, 168 h, read-out: BRCA2 −/− DLD-1 prolif. 7 d IC50
Method: DLD1 and BRCA2 (−/−) DLD1 cells were harvested to a density of 5000 cells/ml and 2.5E4 cells/ml respectively in complete media, 40 μL/well seeded into 384-well plates (Greiner, Kremsmunster, Austria; 781090) using a Multidrop Combi then incubated at 37° C., 5% CO2 overnight. Next day (Day 1) using a Multidrop Combi add sytox green (5ul, 2 uM) and saponin (10 ul, 0.25% stock) to a day 0 plate, seal the plate using a black adhesive lid and incubate for >3 h at it. Cells were imaged using Cell Insight (Thermo Fisher) fitted with a 4x objective. Test compounds are added using an Echo 555 and placed in incubator maintained at 37° C., 5% CO2 and incubated for 7 days. On Day 8 add sytox green (5ul, 2 uM) and then saponin (10 ul, 0.25% stock) to plates, seal the plate using a black adhesive lid and incubate for >3 h at it. Read all cells on the Cell Insight with 4× Objective. The rate of proliferation is determined in Genedata by assessing the total cell number output from the Cell Insight for Day 0 and Day 8 plates.

[10] = test system: U87MG xenograft; assay type: in vivo, female Nude mice
Method: U87MG cells (2.5 million in serum-free MEM medium) were implanted subcutaneously (SC) into the dorsal flank of female Nude mice (weight greater than 18 g). Tumours were measured (length x width) two times weekly by bilateral Vernier calliper measurements and tumour volume was calculated using elliptical formula (π/6×width×width×length). Animal bodyweight and tumour condition were monitored throughout the study. Mice were randomised into treatment groups when mean tumour volume reached approximately 0.2 cm^3.
Animals were treated orally (PO) from the day after the randomisation. Control animals were treated with vehicle (water/methane sulfonic acid (MSA) pH3-3.2) once daily for 10 days (QD×10). PARP inhibitor in water/MSA pH3-3.2 was dosed in the monotherapy and combination groups at 3 mg/kg QD×10 or QD×33, respectively. Temozolomide (TMZ) in OraPlus Perrigo was dosed in the monotherapy group at 25 mg/kg QD on days 1-5 and 29-33, and in monotherapy and combination group at 6.25 mg/kg QD on days 1-5 and 29-33.
Tumour growth inhibition from start of treatment was assessed by comparison of the mean change in tumour volume (TV) of the control and treated groups and represented as percent tumour growth inhibition (TGI, when tumour volume (TV) >starting TV) or tumour regression (reg, when TV<starting TV). Statistical significance was evaluated using a one-tailed t test. Statistical significance is indicated as follows: *p:0.05, **p:0.01, ***p:0.001.

[11] = TMZ 6.25 mg/kg QD on days 1-5 and 29-33, PO
[12] = TMZ 25 mg/kg QD on days 1-5 and 29-33, PO

Chain of PARP5a (O95271 1112-1317): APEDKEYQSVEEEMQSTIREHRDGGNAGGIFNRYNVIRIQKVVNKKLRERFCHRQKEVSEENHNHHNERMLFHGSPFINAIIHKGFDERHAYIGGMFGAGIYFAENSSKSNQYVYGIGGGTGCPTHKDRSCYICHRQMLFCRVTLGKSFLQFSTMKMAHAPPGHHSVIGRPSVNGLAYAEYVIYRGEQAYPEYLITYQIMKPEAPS
Chain of PARP1 (P09874 whole entry): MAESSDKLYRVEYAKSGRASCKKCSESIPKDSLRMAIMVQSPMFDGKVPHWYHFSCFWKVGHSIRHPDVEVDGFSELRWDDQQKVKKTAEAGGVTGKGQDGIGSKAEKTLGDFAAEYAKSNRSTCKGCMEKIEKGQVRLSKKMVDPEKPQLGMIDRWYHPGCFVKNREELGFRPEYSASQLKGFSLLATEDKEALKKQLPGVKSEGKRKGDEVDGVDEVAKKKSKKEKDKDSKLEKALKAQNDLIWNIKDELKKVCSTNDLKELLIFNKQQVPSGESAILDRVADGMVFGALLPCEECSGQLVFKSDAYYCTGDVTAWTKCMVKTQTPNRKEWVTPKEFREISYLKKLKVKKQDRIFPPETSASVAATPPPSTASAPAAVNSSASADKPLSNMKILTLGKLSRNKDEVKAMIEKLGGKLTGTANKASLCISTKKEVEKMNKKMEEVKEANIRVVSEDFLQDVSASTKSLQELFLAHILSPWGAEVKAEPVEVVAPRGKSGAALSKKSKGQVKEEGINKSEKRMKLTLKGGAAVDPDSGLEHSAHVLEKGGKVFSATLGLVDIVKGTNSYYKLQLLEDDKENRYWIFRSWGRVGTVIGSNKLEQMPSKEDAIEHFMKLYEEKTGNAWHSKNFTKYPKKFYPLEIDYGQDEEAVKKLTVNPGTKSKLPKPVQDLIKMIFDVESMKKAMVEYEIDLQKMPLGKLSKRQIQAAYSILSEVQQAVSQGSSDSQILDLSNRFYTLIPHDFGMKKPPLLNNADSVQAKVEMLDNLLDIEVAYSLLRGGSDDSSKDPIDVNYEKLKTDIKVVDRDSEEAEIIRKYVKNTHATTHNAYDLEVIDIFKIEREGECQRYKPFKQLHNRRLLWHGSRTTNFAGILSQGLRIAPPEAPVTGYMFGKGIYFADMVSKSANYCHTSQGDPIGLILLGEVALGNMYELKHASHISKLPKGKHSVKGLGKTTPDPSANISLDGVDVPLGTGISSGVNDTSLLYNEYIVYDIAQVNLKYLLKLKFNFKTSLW
Chain of PARP6 (Q2NL67 whole entry): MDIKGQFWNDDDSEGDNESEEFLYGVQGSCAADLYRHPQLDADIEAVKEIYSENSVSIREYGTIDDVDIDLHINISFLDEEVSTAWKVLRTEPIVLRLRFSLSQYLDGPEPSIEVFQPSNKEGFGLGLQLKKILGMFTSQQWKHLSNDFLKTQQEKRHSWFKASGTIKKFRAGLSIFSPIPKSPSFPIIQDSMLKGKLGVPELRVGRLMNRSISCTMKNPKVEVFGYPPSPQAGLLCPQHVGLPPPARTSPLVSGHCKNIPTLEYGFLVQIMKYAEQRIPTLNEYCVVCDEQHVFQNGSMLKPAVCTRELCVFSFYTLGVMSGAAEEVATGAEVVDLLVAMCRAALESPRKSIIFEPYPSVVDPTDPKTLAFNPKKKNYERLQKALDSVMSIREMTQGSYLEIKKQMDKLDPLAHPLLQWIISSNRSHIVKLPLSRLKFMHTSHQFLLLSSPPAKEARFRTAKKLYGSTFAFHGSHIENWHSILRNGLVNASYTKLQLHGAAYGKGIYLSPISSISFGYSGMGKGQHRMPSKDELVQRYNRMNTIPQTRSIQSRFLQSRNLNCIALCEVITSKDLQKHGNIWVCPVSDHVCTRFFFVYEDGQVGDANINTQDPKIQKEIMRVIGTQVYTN
Chain of PARP3 (Q9Y6F1 whole entry, the tested form may be a part): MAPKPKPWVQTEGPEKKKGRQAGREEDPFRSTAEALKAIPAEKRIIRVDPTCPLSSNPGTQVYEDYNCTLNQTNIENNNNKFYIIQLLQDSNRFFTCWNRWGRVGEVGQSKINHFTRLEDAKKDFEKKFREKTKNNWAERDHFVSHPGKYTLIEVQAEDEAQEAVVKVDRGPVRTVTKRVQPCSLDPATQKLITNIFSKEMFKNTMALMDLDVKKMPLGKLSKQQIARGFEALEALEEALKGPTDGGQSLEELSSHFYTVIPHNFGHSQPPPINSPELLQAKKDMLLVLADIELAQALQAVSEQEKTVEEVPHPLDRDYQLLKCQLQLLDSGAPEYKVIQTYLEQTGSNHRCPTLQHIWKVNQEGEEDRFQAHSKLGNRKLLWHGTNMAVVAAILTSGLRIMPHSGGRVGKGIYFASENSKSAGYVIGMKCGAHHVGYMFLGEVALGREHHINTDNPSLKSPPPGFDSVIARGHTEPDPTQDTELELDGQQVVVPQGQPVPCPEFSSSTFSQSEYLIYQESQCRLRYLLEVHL
Chain of PARP2 (Q9UGN5 whole entry): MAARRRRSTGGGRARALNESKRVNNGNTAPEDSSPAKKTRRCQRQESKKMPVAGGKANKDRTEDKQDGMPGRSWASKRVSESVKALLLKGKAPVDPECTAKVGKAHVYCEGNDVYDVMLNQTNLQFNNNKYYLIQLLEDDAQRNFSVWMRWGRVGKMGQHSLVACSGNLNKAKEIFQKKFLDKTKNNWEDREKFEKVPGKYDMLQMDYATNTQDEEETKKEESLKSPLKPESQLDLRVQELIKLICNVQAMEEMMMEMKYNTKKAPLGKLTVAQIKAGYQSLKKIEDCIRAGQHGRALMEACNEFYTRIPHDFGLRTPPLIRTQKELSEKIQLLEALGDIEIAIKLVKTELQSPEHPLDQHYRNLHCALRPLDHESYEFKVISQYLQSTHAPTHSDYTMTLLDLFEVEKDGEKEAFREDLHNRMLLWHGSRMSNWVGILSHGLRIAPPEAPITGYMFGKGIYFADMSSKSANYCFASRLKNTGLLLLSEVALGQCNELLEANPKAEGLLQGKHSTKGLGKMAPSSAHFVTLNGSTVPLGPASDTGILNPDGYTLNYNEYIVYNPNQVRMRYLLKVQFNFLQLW
Chain of hERG (Q12809 whole entry): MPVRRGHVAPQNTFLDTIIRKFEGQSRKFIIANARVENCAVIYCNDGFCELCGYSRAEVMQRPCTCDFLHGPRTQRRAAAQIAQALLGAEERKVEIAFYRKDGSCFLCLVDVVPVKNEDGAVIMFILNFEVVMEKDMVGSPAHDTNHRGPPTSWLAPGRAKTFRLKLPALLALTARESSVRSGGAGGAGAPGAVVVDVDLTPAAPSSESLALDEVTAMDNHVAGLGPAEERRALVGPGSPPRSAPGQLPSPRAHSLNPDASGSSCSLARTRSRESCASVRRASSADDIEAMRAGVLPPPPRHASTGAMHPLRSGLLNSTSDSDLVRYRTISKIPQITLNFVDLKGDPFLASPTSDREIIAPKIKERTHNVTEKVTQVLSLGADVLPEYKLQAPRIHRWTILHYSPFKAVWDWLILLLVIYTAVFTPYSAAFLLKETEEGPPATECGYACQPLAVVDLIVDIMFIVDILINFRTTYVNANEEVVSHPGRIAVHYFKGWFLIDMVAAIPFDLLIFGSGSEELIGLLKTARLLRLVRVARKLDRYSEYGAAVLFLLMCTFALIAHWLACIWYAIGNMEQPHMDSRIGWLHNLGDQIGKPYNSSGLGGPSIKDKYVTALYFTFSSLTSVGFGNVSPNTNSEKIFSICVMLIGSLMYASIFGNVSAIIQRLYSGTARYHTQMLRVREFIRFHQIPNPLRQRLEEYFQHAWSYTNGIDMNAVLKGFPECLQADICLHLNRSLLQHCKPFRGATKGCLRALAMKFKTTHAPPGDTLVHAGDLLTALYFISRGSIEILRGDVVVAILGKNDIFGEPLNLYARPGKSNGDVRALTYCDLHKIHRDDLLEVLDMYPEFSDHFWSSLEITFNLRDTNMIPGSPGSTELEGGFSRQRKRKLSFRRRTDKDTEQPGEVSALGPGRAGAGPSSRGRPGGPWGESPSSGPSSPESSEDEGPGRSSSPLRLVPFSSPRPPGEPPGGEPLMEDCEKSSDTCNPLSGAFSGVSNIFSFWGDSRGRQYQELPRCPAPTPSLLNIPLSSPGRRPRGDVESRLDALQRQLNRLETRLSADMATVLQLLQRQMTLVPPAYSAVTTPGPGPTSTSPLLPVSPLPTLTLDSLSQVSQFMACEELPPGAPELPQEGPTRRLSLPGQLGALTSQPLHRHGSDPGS

IC50 [1] | IC50 [2] | IC50 [3] | IC50 [4] | IC50 [5] | Kp uu at 4 h [6] | efflux ratio at 90 min [7] | Rat Kpuu [6] | IC50 [9] | Compound | IC50 [8] | tumour regression [10, 11] | tumours regressed [10, 11] | tumour regression [10, 12] | tumours regressed [10, 12]
> 100 µM | > 100 µM | 0.004 µM | > 70 µM | > 100 µM | 0.07 | 0.7 | – | – | CNC(=O)c1ccc(N2CCN(Cc3ccc4nc(C)c(=O)[nH]c4c3C)CC2)c(F)n1 [Example 1, 5-[4-[(2,5-dimethyl-3-oxo-4H-quinoxalin-6-yl)methyl]piperazin-1-yl]-6-fluoro-N-methyl-pyridine-2-carboxamide] | – | – | – | – | –
> 100 µM | > 100 µM | 0.005 µM | > 83 µM | 78 µM | 0.13 | 0.8 | – | – | CNC(=O)c1ccc(N2CCN(Cc3ccc4nc(C)c(=O)[nH]c4c3C)CC2)c(C)n1 [Example 4, 5-[4-[(2,5-dimethyl-3-oxo-4H-quinoxalin-6-yl)methyl]piperazin-1-yl]-N,6-dimethyl-pyridine-2-carboxamide] | – | – | – | – | –
– | – | 0.005 µM | – | – | – | – | – | – | CNC(=O)c1ccc(N2CCN(Cc3ccc4nc(C)c(=O)[nH]c4c3Cl)CC2)c(C)n1 [Example 18, 5-[4-[(5-chloro-2-methyl-3-oxo-4H-quinoxalin-6-yl)methyl]piperazin-1-yl]-N,6-dimethyl-pyridine-2-carboxamide] | 14 µM | – | – | – | –
> 100 µM | > 100 µM | 0.005 µM | > 67 µM | > 100 µM | 0.62 | 0.8 | – | – | CCc1nc2ccc(CN3CCN(c4ccc(C(=O)NC)nc4C)CC3)c(F)c2[nH]c1=O [Example 23, 5-[4-[(2-ethyl-5-fluoro-3-oxo-4H-quinoxalin-6-yl)methyl]piperazin-1-yl]-N,6-dimethyl-pyridine-2-carboxamide] | – | – | – | – | –
> 100 µM | > 100 µM | – | – | > 100 µM | – | – | 0.43 | – | CCc1nc2ccc(CN3CCN(c4ccc(C(=O)NC)nc4F)CC3)c(F)c2[nH]c1=O [Example 27, 5-[4-[(2-ethyl-5-fluoro-3-oxo-4H-quinoxalin-6-yl)methyl]piperazin-1-yl]-6-fluoro-N-methyl-pyridine-2-carboxamide] | – | – | – | – | –
> 100 µM | > 100 µM | 0.015 µM | > 100 µM | > 100 µM | 0.33 | 0.7 | – | – | CCc1nc2ccc(CN3CCN(c4ccc(C(=O)NC)nc4)CC3)c(F)c2[nH]c1=O [Example 29, 5-[4-[(2-ethyl-5-fluoro-3-oxo-4H-quinoxalin-6-yl)methyl]piperazin-1-yl]-N-methyl-pyridine-2-carboxamide] | – | – | – | – | –
> 100 µM | > 100 µM | 0.007 µM | > 100 µM | > 100 µM | – | 1.6 | 0.19 | 0.007 µM | CNC(=O)c1ccc(N2CCN(Cc3ccc4nc(C)c(=O)[nH]c4c3F)CC2)c(C)n1 [Example 31, 5-[4-[(5-fluoro-2-methyl-3-oxo-4H-quinoxalin-6-yl)methyl]piperazin-1-yl]-N,6-dimethyl-pyridine-2-carboxamide] | – | – | – | – | –
> 100 µM | > 100 µM | 0.039 µM | 26 µM | > 100 µM | – | 8.8 | – | – | CNC(=O)c1ccc(N2CCN(Cc3ccc4nc(C(F)(F)F)c(=O)[nH]c4c3F)CC2)c(F)n1 [Example 48, 6-fluoro-5-[4-[[5-fluoro-3-oxo-2-(trifluoromethyl)-4H-quinoxalin-6-yl]methyl]piperazin-1-yl]-N-methyl-pyridine-2-carboxamide] | – | – | – | – | –
– | – | – | – | – | – | – | – | – | Cn1nnc2c(C(N)=O)ncn2c1=O [TMZ, Temozolomide] | – | 28% | 2/8 | 92% | 7/8

Source: patent US20250082630A1, “METHODS OF TREATING BRAIN TUMOURS AND NEUROBLASTOMAS” (AstraZeneca AB, priority 2021, published 2025)
